Assay results taken from US20230250183A1, “POLYPEPTIDE THAT SPECIFICALLY BINDING TO CD123 PROTEIN, POLYPEPTIDE COMPLEXE, CO-DELIVERY SYSTEM AND PREPARATION METHOD AND USE THEREOF” (Institute of Basic Medical Sciences Chinese Academy of …, priority 2020, published 2023).
Structures can show the parent of a compound that is named as a salt. No end group written: not given here.

Experiments:
[1] = Effect of co-delivery system on the activity of HUVEC cells (CCK-8); format: cell-based, human; conditions: human, Dox 0.1 μM, polypeptide 2.1 μM, CCK8, read-out: percent viability of cells
Method: (§1) HUVEC cells were inoculated in 96-well plates with 1×10^4 cells per well, and grouping was the same as experiment 8. Corresponding drug stock solutions were added into each well in each experimental group to make the final Dox concentration of each well is 0.1 μM and the final corresponding polypeptide concentration of each well is 2.1 μM. Incubated at 37° C. in 5% CO2 incubator for 24 hours, then washed with PBS, and 110 μL CCK8 diluent (including 100 μL RPMI 1640 medium+10 μL CCK-8) was added in each well, followed by incubation for 2 h. The absorbance values (OD value) at wavelengths of 450 nm and 630 nm were measured by a microplate reader, and the percent viability of cells was calculated according to Formula 1, and the control group was the cells without drug treatment, denoted as Con.

MOLM-13 cells [2] = assay: Effect of co-delivery system on the activity of MOLM-13 cells (CCK-8); format: cell-based; conditions: human, 24 h
Method: The following experimental groups were set and stock solutions for experiment were configured, including:
1) Polypeptide PO-6 group (PO-6): polypeptide stock solution obtained in Example 1 (polypeptide concentration is 1 mM);
2) Doxorubicin (Dox) group: doxorubicin hydrochloride was dissolved in sterile water to obtain 1 mg/mL (1.7 mM) Dox stock solution;
3) High polymer group (mPEG2000-PCL2000): 15 mg mPEG2000-PCL2000 powder was weighted and dissolved with 1 mL PBS solution to obtain 15 mg/mL (3.3 mM) mPEG2000-PCL2000 stock solution.
4) Polypeptide PO-6 and Dox combination group (PO-6+Dox): the polypeptide stock solution in experimental group 1) and the Dox stock solution in experimental group 2) were diluted with PBS solution respectively, then mixed to obtain a mixed solution. The concentration of polypeptide was 36.2 μM, the concentration of Dox was 17.24 μM, and the weight ratio of polypeptide PO-6 to Dox was 10:1 in the mixed solution; […]
Experimental procedure: MOLM-13 cells were inoculated in 96-well U-shaped plates with 8×10^4 cells per well. […] The absorbance values (OD value) at wavelengths of 450 nm and 630 nm were measured by a microplate reader, and the percent viability of cells was calculated according to Formula 1, and the control group was the cells without drug treatment, denoted as Con; […]

HUVEC cells = assay: Effect of co-delivery system on the activity of HUVEC cells (CCK-8); format: cell-based, human; conditions: Dox 0.1 μM, polypeptide 2.1 μM, 24 hours, CCK8
Method: as §1

MOLM-13 cells [3] = assay: Binding of polypeptide, polypeptide complex to MOLM-13 observed by laser scanning confocal microscope; conditions: FITC-labeled, polypeptide 0.5 μM, 0.5 h
Method: MOLM-13 cells (2×10^5 cells per well) were incubated with FITC-labeled polypeptides (taking PO-6, and PO-6N as examples) and polypeptide complexes (see Table 2) at 37° C. for 30 min, and the final concentration of polypeptides was 0.5 μM (the final concentration of polypeptides in the cultivation system of polypeptide complexes was also 0.5 μM). After incubation, the cells were collected and washed twice with PBS solution, centrifuged at 1500 rpm for 5 min, and the supernatant was discarded. 400 μL paraformaldehyde in PBS aqueous solution (containing 4 wt % paraformaldehyde) was added to each well, and they were placed in dark at room temperature for 30 min, so that the cells were fixed by paraformaldehyde. washed once with PBS solution, centrifugated at 2000 rpm for 5 min, and the cells were dropped on the glass slide to dry naturally, and then was sealed with a mounting medium containing DAPI (4′, 6-diamidino-2-phenylindole). Laser scanning confocal microscope (Ex=488 nm (FITC); Ex=405 nm (DAPI)) was used for observation and photographing. MOLM-13 cells without any treatment were taken as the control group, i.e., Con. Photos of polypeptide PO-6 and PO-6N and corresponding polypeptide complexes (taking C-1 and C-1′ as examples) are shown in FIG. 9 and FIG. 10. […]

[4] = system: K562 cells (CD123-negative); assay: Polypeptide binding to K562 cells by flow cytometry; conditions: FITC-labeled polypeptide 0.5, 1, 5 and 10 μM, 37° C., 0.5 h
Method: (§2) MOLM-13 and K562 cells were inoculated into 48-well plates with 2×10^5 cells per well, respectively, and FITC-labeled polypeptides listed in Table 1 were added to make the final concentrations of polypeptides were 0.5 μM, 1 μM, 5 μM and 10 μM, respectively. Incubate at 37° C. in 5% CO2 incubator for 0.5 h. After incubation, washed once with PBS solution, centrifuged at 1500 rpm for 5 min, and the supernatant was discarded, and 100 μL PBS solution was added to each well to re-suspend the cells, and 300 mesh sieve was used for filtration. Flow cytometry was used for determination of the mean fluorescence intensity (MFI) of MOLM-13 and K562 cells, and MFI was used as indication of the binding quantity of polypeptide on cells. FIGS. 2 and 3 show the quantity of polypeptides bound to cells.

[5] = system: MOLM-13 cells (CD123-positive); assay: Polypeptide binding to MOLM-13 cells by flow cytometry; conditions: FITC-labeled polypeptide 0.5, 1, 5 and 10 μM, 37° C., 0.5 h
Method: as §2

DDDYDTRAQGTDIGCDFRRISDDD [PO-6]
viability at 24 h, 2.1 µM [1]: > 90%
percent viability of cells (MOLM-13 cells [2]; 0.21 μM): 98%

COc1cccc2c1C(=O)c1c(O)c3c(c(O)c1C2=O)C[C@@](O)(C(=O)CO)C[C@@H]3O[C@H]1C[C@H](N)[C@H](O)[C@H](C)O1 [Dox, doxorubicin hydrochloride, reference compound]
percent viability of cells (HUVEC cells): about 50%
percent viability of cells (MOLM-13 cells [2]; 0.1 μM): 57%

GGDDDYDTRAQGTDIGNDFRRISDDD [PO-6N]
green fluorescence on the cell surface compared with Con (MOLM-13 cells [3]): obvious green fluorescence
binding quantity to K562 cells (mean fluorescence intensity of FITC) [4]: very weak
binding quantity to MOLM-13 cells (mean fluorescence intensity of FITC) [5]: can bind
